# Results from US20240150691A1, “BILE DUCT CHIP AND USE THEREOF” (Kyoto University, priority 2021, published 2024).
# Key:
# [1] = Drug absorption in microfluidic device without PHH (LC-MS/MS); type: physicochemical; settings: for Drug absorption rate: Microfluidic device/Polystyrene plate, without PHH
# Method: (§1) A culture medium containing MDZ, DIC, PHE, BUF, or MPHT was added to a microfluidic device or a polystyrene plate. Subsequently, 1, 2, and 4 hours after the addition of the drugs, the amounts of these drugs were quantified with LC-MS/MS.
# as §1, with “APAP (a CYP1A2 metabolite), 1OH-MDZ (a CYP3A4 metabolite), 4OH-DIC (a CYP2C9 metabolite), 4OH-MPHT (a CYP2C19 metabolite),” for “MDZ, DIC, PHE, BUF,”, “1OH-BUF (a CYP2D6 metabolite)” for “MPHT”
# Subsequently, it was examined whether the absorption of the drugs and metabolites could be predicted by the relative physicochemical characteristics between the microfluidic device and the polystyrene plate. The drug absorption rate between the microfluidic device and the polystyrene plate was calculated. Subsequently, a correlation coefficient R^2 value between the drug absorption rate and the physicochemical characteristics (DiffCoef, M Log P, S+Log P, S+log D, MWt, and tPSA) of the drugs was calculated.
# [2] = molecular target: T1, CYP2C9 (Homo sapiens, UniProt P11712); test: Measurement of CYP activity using CYP substrates in PHH (DIC to 4OH-DIC); type: in vitro ADME; settings: 5 μM DIC
# T1 construct: endogenous in cells; host or cells: primary human hepatocytes (PHH)
# T1 sequence (P11712 whole entry): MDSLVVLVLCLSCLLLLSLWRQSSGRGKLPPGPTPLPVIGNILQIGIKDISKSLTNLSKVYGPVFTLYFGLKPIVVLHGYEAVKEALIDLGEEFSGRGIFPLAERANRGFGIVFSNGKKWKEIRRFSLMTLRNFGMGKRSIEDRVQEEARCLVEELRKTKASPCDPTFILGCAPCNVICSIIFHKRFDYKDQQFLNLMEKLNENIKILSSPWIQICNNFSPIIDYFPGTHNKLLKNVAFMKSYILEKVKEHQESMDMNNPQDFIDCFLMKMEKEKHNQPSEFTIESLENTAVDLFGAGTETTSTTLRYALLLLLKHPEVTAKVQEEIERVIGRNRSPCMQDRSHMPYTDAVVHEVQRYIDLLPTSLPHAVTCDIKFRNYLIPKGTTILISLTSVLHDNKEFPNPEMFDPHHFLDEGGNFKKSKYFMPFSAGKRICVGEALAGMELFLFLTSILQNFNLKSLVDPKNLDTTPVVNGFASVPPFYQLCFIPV
# Method: (§2) The LC-MS/MS analysis was carried out to measure the activity of CYP. Prior to a CYP substrate treatment, PHH was cultured in DMEM containing 10 mM HEPES for 30 minutes. Subsequently, the PHH was cultured in a culture medium containing 5 μM MDZ (the metabolite thereof is 1OH-MDZ), 50 μM MPHT (the metabolite thereof is 4OH-MPHT), 5 μM DIC (the metabolite thereof is 4OH-DIC), 10 μM BUF (the metabolite thereof is 1OH-BUF), or 50 μM PHE (the metabolite thereof is APAP). The supernatant was recovered 1, 2, and 4 hours after the treatment with the substrate. At the time of recovering the supernatant, an equal amount of a culture medium containing the substrate was added.
# (§3) The recovered supernatant was mixed with acetonitrile (FUJIFILM Wako Pure Chemical Corporation) containing an equal volume of 5 μM propranolol (internal standard). The specimen was filtered through a Cosmonice Filter W (Nacalai Tesque, Inc.) having a pore size of 0.45 μm, the supernatant was subsequently analyzed by LC-MS/MS, and the concentration of the metabolite was measured based on the standard curve. […]
# (§4) Subsequently, the drug metabolic activities of the PHH cultured in the PDMS device and the PS plate were compared. […] Subsequently, after 1, 2, and 4 hours, the amounts of the metabolites (OH-MDZ, 4OH-DIC, APAP, 1OH-BUF, and 4OH-MPHT) generated in the culture medium were measured by LC-MS/MS.
# [3] = molecular target: T2, CYP2C19 (Homo sapiens, UniProt P33261); test: Measurement of CYP activity using CYP substrates in PHH (MPHT to 4OH-MPHT); type: in vitro ADME; settings: 50 μM MPHT
# T2 construct: endogenous in cells; host or cells: primary human hepatocytes (PHH)
# T2 sequence (P33261 whole entry): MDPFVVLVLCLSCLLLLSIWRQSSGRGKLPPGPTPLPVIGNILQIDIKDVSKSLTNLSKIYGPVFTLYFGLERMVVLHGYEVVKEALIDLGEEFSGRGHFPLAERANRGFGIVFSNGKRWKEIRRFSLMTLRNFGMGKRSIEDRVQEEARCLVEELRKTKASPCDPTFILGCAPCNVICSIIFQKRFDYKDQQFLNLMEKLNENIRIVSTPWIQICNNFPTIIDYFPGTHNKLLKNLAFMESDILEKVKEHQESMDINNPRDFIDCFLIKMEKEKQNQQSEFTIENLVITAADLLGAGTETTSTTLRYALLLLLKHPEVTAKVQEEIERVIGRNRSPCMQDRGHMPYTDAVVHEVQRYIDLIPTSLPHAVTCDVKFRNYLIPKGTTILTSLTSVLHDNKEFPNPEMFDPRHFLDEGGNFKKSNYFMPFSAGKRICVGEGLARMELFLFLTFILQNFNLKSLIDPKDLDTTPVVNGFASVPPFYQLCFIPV
# Method: as §2, §3, §4
# [4] = molecular target: T3, CYP2D6 (Homo sapiens, UniProt P10635); test: Measurement of CYP activity using CYP substrates in PHH (BUF to 1OH-BUF); type: in vitro ADME; settings: 10 μM BUF
# T3 construct: endogenous in cells; host or cells: primary human hepatocytes (PHH)
# T3 sequence (P10635 whole entry): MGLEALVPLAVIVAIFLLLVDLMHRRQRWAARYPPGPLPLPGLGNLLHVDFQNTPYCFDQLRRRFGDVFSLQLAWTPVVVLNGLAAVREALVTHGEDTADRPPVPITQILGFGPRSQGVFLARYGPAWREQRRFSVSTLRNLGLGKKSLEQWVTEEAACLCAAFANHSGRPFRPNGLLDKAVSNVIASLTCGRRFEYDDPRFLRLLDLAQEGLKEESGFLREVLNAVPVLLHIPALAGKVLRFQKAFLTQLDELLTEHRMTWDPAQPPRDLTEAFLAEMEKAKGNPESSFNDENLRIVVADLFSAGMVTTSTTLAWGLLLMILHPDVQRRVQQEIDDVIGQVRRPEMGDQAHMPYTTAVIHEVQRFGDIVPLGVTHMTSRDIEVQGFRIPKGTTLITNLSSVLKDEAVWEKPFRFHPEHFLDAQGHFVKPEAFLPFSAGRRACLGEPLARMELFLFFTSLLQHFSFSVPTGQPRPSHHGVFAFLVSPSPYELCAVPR
# Method: as §2, §3, §4
# [5] = tested on: CYP1A2; test: Measurement of CYP activity using CYP substrates in PHH (PHE to APAP); type: in vitro ADME, human; settings: 50 μM PHE
# Method: The supernatant was recovered 1, 2, and 4 hours after the treatment with the substrate.
# [6] = Acetaminophen-induced cytotoxicity, WST-8 assay; type: cell-based, human; settings: human, PHH cultured on the polystyrene plate
# Method: (§5) PHH was exposed to 10 mM APAP (FUJIFILM Wako Pure Chemical Corporation) for 4 days. Cell viability was measured according to a WST-8 assay. The WST-8 assay was carried out using a Cell Counting Kit-8 (Dojindo Molecular Technologies. Inc.) according to the instruction manual. The cell viability was calculated as a percentage with respect to cells not subjected to a drug treatment.
# (§6) The drug responsiveness of the PHH cultured in the microfluidic device and the polystyrene plate was evaluated. PHH was treated with acetaminophen (APAP), which is known to cause drug-induced liver damage at a high concentration, in order to investigate whether or not drug-induced liver damage can be evaluated in PHH cultured in a microfluidic device. PHH was seeded in a microfluidic device or a polystyrene plate and cultured for 24 hours. Subsequently, the PHH was exposed to 10 mM acetaminophen for 4 days. Subsequently, cell viability was measured according to a WST-8 assay.
# (§7) Subsequently, the hepatotoxicity of PHH due to acetaminophen was examined. The PHH cultured on the polystyrene plate was exposed to acetaminophen at various concentrations for 4 days. Subsequently, cell viability was measured according to a WST-8 assay. […] The data is indicated as average value±standard deviation (n=3).
# [7] = tested on: PHH; test: Acetaminophen-induced cytotoxicity, WST-8 assay; type: cell-based, human; settings: 10 mM acetaminophen, 4 days
# Method: as §5, §6, §7
smiles,measurement,setting,value
"O=C(O)Cc1ccccc1Nc1c(Cl)cc(O)cc1Cl [4-hydroxy diclofenac, 4-hydroxydiclofenac]",Drug absorption rate,[1],0.725
same,"formation rate of metabolite, microfluidic device versus PS plate",[2],significantly lower
CCC1(c2ccc(O)cc2)NC(=O)N(C)C1=O (centres unmarked) [4-hydroxymephenytoin],Drug absorption rate,[1],0.8633
same,"formation rate of metabolite, microfluidic device versus PS plate",[3],significantly lower
CC(O)c1cccc2cc(C(O)CNC(C)(C)C)oc12 (centres unmarked) [1-hydroxybufuralol],Drug absorption rate,[1],0.9648
same,absorption in the microfluidic device,[1]; PDMS device without PHH,not absorbed
same,"formation rate of metabolite, microfluidic device versus polystyrene plate",[4],similar
"CC(=O)Nc1ccc(O)cc1 [Acetaminophen, acetaminophen]","formation rate of metabolite, microfluidic device versus polystyrene plate",[5],similar
same,Drug absorption rate,[1],0.8987
same,CC50 at 4 days,[6],9.4 mM
same,"cell viability, microfluidic device versus polystyrene plate",[7],significantly lower
